Measurements taken from the supplement of paper PMC10307832.

Legend:
Assay in all cases: relative viability (nuclei count vs DMSO), 5 days (fraction); higher = more cells survive
Alpelisib + Dasatinib = compound: Cc1nc(NC(=O)N2CCC[C@H]2C(N)=O)sc1-c1ccnc(C(C)(C)C(F)(F)F)c1 [Alpelisib] + Cc1nc(Nc2ncc(C(=O)Nc3c(C)cccc3Cl)s2)cc(N2CCN(CCO)CC2)n1 [Dasatinib] (partner 0.075 µM)
In short: (§1)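 Lung cancer cell lines, seeded in 1536-well plates, were treated the following day by pin tool with a single drug or with five library-drug doses (not always all listed) in √10 steps on top of a fixed anchor-drug dose. Cells were fixed and nuclei stained in one step after 5 days, and nuclei were counted. Relative viability is the nuclei count for treated wells divided by that for vehicle wells, reported as medians of duplicate plates.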

Vemurafenib + Alpelisib = compound: CCCS(=O)(=O)Nc1ccc(F)c(C(=O)c2c[nH]c3ncc(-c4ccc(Cl)cc4)cc23)c1F [Vemurafenib] + Cc1nc(NC(=O)N2CCC[C@H]2C(N)=O)sc1-c1ccnc(C(C)(C)C(F)(F)F)c1 [Alpelisib] (partner 2 µM)
In short: as §1

Vemurafenib + Phenformin = compound: CCCS(=O)(=O)Nc1ccc(F)c(C(=O)c2c[nH]c3ncc(-c4ccc(Cl)cc4)cc23)c1F [Vemurafenib] + N=C(N)NC(=N)NCCc1ccccc1 [Phenformin] (partner 250 µM)
In short: as §1

OSI-027 + Palbociclib = compound: COc1cccc2cc(-c3nc([C@H]4CC[C@H](C(=O)O)CC4)n4ncnc(N)c34)[nH]c12 [OSI-027] + CC(=O)c1c(C)c2cnc(Nc3ccc(N4CCNCC4)cn3)nc2n(C2CCCC2)c1=O [Palbociclib] (partner 0.5 µM)
In short: as §1

Row | Cell Line | relative viability (Alpelisib + Dasatinib; first compound 0.04 µM) | relative viability (Alpelisib + Dasatinib; first compound 0.1265 µM) | relative viability (Alpelisib + Dasatinib; first compound 0.4 µM) | relative viability (Alpelisib + Dasatinib; first compound 1.265 µM) | relative viability (Alpelisib + Dasatinib; first compound 4 µM) | relative viability (Vemurafenib + Alpelisib; first compound 0.03162 µM) | relative viability (Vemurafenib + Alpelisib; first compound 0.3162 µM) | relative viability (Vemurafenib + Alpelisib; first compound 1 µM) | relative viability (Vemurafenib + Phenformin; first compound 0.03162 µM) | relative viability (Vemurafenib + Phenformin; first compound 0.1 µM) | relative viability (Vemurafenib + Phenformin; first compound 0.3162 µM) | relative viability (Vemurafenib + Phenformin; first compound 1 µM) | relative viability (OSI-027 + Palbociclib; first compound 0.01 µM) | relative viability (OSI-027 + Palbociclib; first compound 0.03162 µM) | relative viability (OSI-027 + Palbociclib; first compound 0.1 µM) | relative viability (OSI-027 + Palbociclib; first compound 0.3162 µM) | relative viability (OSI-027 + Palbociclib; first compound 1 µM) | relative viability (Vemurafenib + Alpelisib; first compound 0.1 µM)
1 | NCI-H1666 | 0.851 | 0.764 | 0.792 | 0.698 | 0.666 | 0.872 | 1.07 | 0.965 | 0.549 | 0.594 | 0.63 | 0.604 | 0.691 | 0.675 | 0.65 | 0.577 | 0.671 | –
2 | NCI-H1734 | 0.42 | – | 0.394 | 0.244 | 0.208 | 0.598 | 0.602 | 0.603 | 0.403 | 0.358 | 0.359 | 0.356 | 0.396 | 0.369 | 0.356 | 0.311 | 0.255 | 0.7
3 | NCI-H1755 | 0.382 | 0.415 | 0.418 | 0.327 | 0.228 | 0.906 | 0.869 | 0.791 | 0.545 | 0.599 | 0.377 | 0.597 | 0.483 | 0.444 | 0.421 | 0.445 | 0.336 | 0.83
4 | NCI-H1792 | 0.723 | 0.83 | 0.736 | 0.485 | 0.336 | 0.624 | 0.61 | 0.693 | 0.228 | 0.236 | 0.115 | 0.336 | 0.578 | 0.451 | 0.623 | 0.604 | 0.308 | 0.673
5 | NCI-H1793 | 0.299 | 0.379 | 0.525 | 0.356 | 0.351 | 0.659 | 0.758 | 0.808 | 0.338 | – | 0.333 | 0.338 | 0.3 | 0.3 | 0.236 | 0.187 | 0.181 | –
6 | NCI-H1915 | 0.29 | 0.28 | 0.313 | 0.268 | 0.276 | 1.02 | 1.03 | 0.993 | 0.354 | 0.348 | 0.255 | 0.332 | 0.535 | 0.523 | 0.429 | 0.388 | 0.268 | 1.04
7 | NCI-H1944 | 0.208 | 0.217 | 0.203 | 0.163 | 0.144 | 0.811 | 0.85 | 0.837 | 0.206 | 0.18 | 0.122 | 0.191 | 0.336 | 0.3 | 0.327 | 0.234 | 0.205 | 0.572
8 | NCI-H1975 | 0.322 | 0.309 | 0.329 | 0.176 | 0.112 | 0.582 | 0.526 | 0.629 | 0.422 | 0.406 | 0.289 | 0.466 | 0.601 | 0.578 | 0.549 | 0.598 | 0.359 | 0.608
9 | NCI-H1993 | 0.532 | 0.469 | 0.508 | 0.454 | 0.569 | 0.62 | 0.585 | 0.647 | 0.532 | – | 0.595 | 0.468 | 0.613 | 0.491 | 0.414 | 0.432 | 0.381 | –
10 | NCI-H2009 | 0.309 | 0.281 | 0.353 | 0.223 | 0.198 | 1.16 | 1.02 | 1.11 | 0.458 | 0.418 | 0.343 | 0.361 | 0.211 | 0.237 | 0.171 | 0.173 | 0.232 | 1.1
11 | NCI-H2023 | 0.484 | 0.537 | 0.483 | 0.244 | 0.304 | 0.614 | 0.749 | 0.538 | 0.376 | 0.381 | 0.378 | 0.354 | 0.36 | 0.326 | 0.249 | 0.22 | 0.161 | 0.524
12 | NCI-H2085 | 0.275 | 0.225 | 0.265 | 0.263 | 0.215 | 0.956 | 0.902 | 1 | 0.65 | 0.57 | 0.683 | 0.676 | 0.463 | 0.515 | 0.458 | 0.428 | 0.446 | 0.826
13 | NCI-H2087 | 0.959 | 0.883 | 1.12 | 0.691 | 0.56 | 1.08 | – | 1.07 | 0.438 | 0.402 | – | 0.467 | 0.261 | 0.169 | 0.207 | 0.195 | 0.142 | 1.02
14 | NCI-H2126 | 0.599 | 0.564 | 0.507 | 0.354 | 0.307 | 0.718 | 0.758 | 0.789 | 0.513 | 0.485 | – | 0.533 | 0.362 | 0.361 | 0.36 | 0.34 | 0.347 | 0.709
15 | NCI-H2170 | 0.535 | 0.519 | 0.506 | 0.483 | 0.396 | 0.735 | 0.692 | 0.712 | 0.396 | 0.354 | 0.376 | 0.454 | 0.407 | 0.382 | 0.329 | 0.302 | 0.201 | 0.301
16 | NCI-H2228 | 0.519 | 0.478 | 0.414 | 0.279 | 0.175 | 0.964 | 0.905 | 0.627 | 0.376 | 0.298 | 0.302 | 0.267 | 0.65 | 0.638 | 0.849 | 0.75 | 0.383 | 0.752
17 | NCI-H2347 | 0.298 | 0.3 | 0.316 | 0.313 | 0.273 | 1.01 | 0.757 | 1.04 | 0.33 | 0.38 | 0.463 | 0.234 | 0.41 | 0.386 | 0.392 | 0.358 | 0.392 | 1.02
18 | NCI-H2405 | 0.208 | 0.191 | 0.216 | 0.19 | 0.197 | 0.708 | – | 0.785 | 0.382 | 0.374 | – | 0.368 | 0.509 | 0.491 | 0.472 | 0.401 | 0.34 | 0.675
19 | NCI-H3122 | 0.806 | 0.653 | 0.624 | 0.487 | 0.295 | 0.814 | 0.896 | 0.862 | 0.357 | 0.372 | 0.292 | 0.394 | 0.167 | 0.177 | 0.175 | 0.168 | 0.152 | 0.761
20 | PC-3 [JPC-3] | 0.948 | 0.928 | 0.993 | 0.903 | 0.907 | 0.985 | 1.11 | 1.07 | 0.482 | – | 0.498 | 0.513 | 0.535 | 0.522 | 0.563 | 0.5 | 0.439 | –
21 | PC-14 | 0.256 | 0.243 | 0.23 | 0.221 | 0.202 | 0.881 | 0.907 | 0.903 | 0.456 | – | 0.218 | 0.652 | 0.512 | 0.509 | 0.545 | 0.576 | 0.408 | –
22 | RERF-LC-KJ | 0.766 | 0.733 | 0.758 | 0.475 | 0.541 | 0.583 | 0.873 | 0.771 | 0.428 | 0.408 | 0.398 | 0.498 | 1.07 | 0.957 | 0.99 | 0.817 | 0.457 | 0.686
23 | SK-LU-1 | 0.141 | 0.149 | 0.133 | 0.128 | 0.0997 | 0.996 | 0.682 | 0.758 | 0.428 | 0.555 | 0.384 | 0.521 | 0.373 | 0.381 | 0.394 | 0.302 | 0.268 | 0.96
24 | SK-MES-1 | 0.332 | 0.334 | 0.438 | 0.17 | 0.191 | 0.829 | 0.723 | 0.776 | 0.624 | 0.695 | 0.622 | 0.706 | 0.294 | 0.322 | 0.286 | 0.275 | 0.274 | 0.574
25 | SW 1573 | 0.438 | 0.458 | 0.672 | 0.364 | 0.202 | 0.769 | 0.781 | 0.551 | 0.386 | 0.308 | 0.4 | 0.395 | 0.388 | 0.389 | 0.356 | 0.333 | 0.216 | 0.667
